Series [1] can be described thus: Cytotoxicity against human MDA-MB-435S cells measured after 72 hrs by MTT assay. The series is classed as functional, cell-based. On the technique in general: Tetrazolium assays rely on reduction of a dye to a coloured formazan, in cell work by metabolically active cells.
The subject of the next series is SGC-7901. As to the kind of experiment: Selectivity index, ratio of IC50 for human L02 cells to IC50 for human SGC7901 cells. The series is classed as functional.
The nature of series [2]: Cytotoxicity against human L02 measured after 72 hrs by MTT assay. The conditions noted are these: L02 cells. The series is classed as toxicity.
Series [3] in a line: Cytotoxicity against human A549 cells measured after 72 hrs by MTT assay. The series is classed as functional, cell-based. Particulars: A549, 72 h.
The nature of series [4]: Cytotoxicity against human PC3 cells measured after 72 hrs by MTT assay. The series is classed as functional, cell-based. Particulars: PC-3, 72 h.
In another series the test system is A549. Nature of the series: Selectivity index, ratio of IC50 for human L02 cells to IC50 for human A549 cells. The series is classed as functional.
Series [5] is described as follows: Cytotoxicity against human SGC7901 cells measured after 72 hrs by MTT assay. The series is classed as functional, cell-based. Particulars: SGC-7901, 72 h.

As a reminder, the IC50 is the point on the concentration scale where inhibition reaches its midpoint.

As for `COc1ccc(Sc2cccc(C(=O)O[C@@H]3O[C@@H]4O[C@]5(C)CC[C@H]6[C@H](C)[C@H](OC(=O)c7cccc(Sc8ccc(OC)cc8)c7)C[C@@H]([C@H]3C)[C@@]46OO5)c2)cc1`, the IC50 worked out at 108 µM in series [1], 4.3 µM in series [3], 30.5 µM in series [4] and 6 µM in series [5]. For the same compound, the “Ratio IC50” value in the series on SGC-7901 is recorded as 11.5; with A549, 16.1. Further, in series [2], the IC50 at 72 h amounted to 69.2 µM.

Regarding `CCCCSc1cccc(C(=O)O[C@@H]2O[C@@H]3O[C@]4(C)CC[C@H]5[C@H](C)[C@H](O)C[C@@H]([C@H]2C)[C@@]35OO4)c1`, the IC50 came out at 96.1 µM in series [3], 464 µM in series [4] and 173 µM in series [5].

`CCSc1cccc(C(=O)O[C@@H]2O[C@@H]3O[C@]4(C)CC[C@H]5[C@H](C)[C@H](O)C[C@@H]([C@H]2C)[C@@]35OO4)c1`: the IC50 in series [1] is 120 µM; in series [3], 1440 µM.

In the case of `COc1ccc(Sc2cccc(C(=O)O[C@@H]3O[C@@H]4O[C@]5(C)CC[C@H]6[C@H](C)[C@H](O)C[C@@H]([C@H]3C)[C@@]46OO5)c2)cc1`, the IC50 in series [1] is 124 µM; in series [3], 1.6 µM; in series [4], 13 µM; in series [5] it was 7.1 µM. The “Ratio IC50” value is 11.3 in the series with SGC-7901 and 50.1 in the series on A549. The IC50 at 72 h in series [2] came out at 80.2 µM.

Turning to `C[C@@H]1[C@H](O)C[C@H]2[C@@H](C)[C@H](OC(=O)c3cccc(SCc4ccccc4)c3)O[C@@H]3O[C@]4(C)CC[C@@H]1[C@]32OO4`, the IC50 in series [1] stood at 223 µM; in series [3], 95 µM; in series [4], 146 µM.

As to `CCCCSc1cccc(C(=O)O[C@@H]2O[C@@H]3O[C@]4(C)CC[C@H]5[C@H](C)[C@H](OC(=O)c6cccc(SCCCC)c6)C[C@@H]([C@H]2C)[C@@]35OO4)c1`, the IC50 in series [3] was found to be 107 µM; in series [4] it was 115 µM; in series [5], 85 µM.

For the compound `O=c1[nH]cc(F)c(=O)[nH]1` [FLUOROURACIL], the IC50 in series [1] stood at 15.2 µM; in series [3], 6.8 µM. Also, the “Ratio IC50” value in the series on SGC-7901 is reported as 2.2; in the series with A549 it was 3.8. For the same compound, inhibition in series [2] was half-maximal at 25.9 µM (IC50 at 72 h).

Regarding `C[C@@H]1[C@H](O)C[C@H]2[C@@H](C)C(=O)O[C@@H]3O[C@]4(C)CC[C@@H]1[C@]32OO4`, the IC50 in series [1] came out at 21.9 µM; in series [3], 80.4 µM. Further, in series [2], the IC50 at 72 h turned out to be 146 µM. Moreover, the “Ratio IC50” value in the series with A549 came to 1.8.

For the compound `C[C@@H]1[C@H](O)C[C@H]2[C@@H](C)[C@H](OC(=O)c3cccc(SC4CCCCC4)c3)O[C@@H]3O[C@]4(C)CC[C@@H]1[C@]32OO4`, the IC50 in series [1] worked out at 29.6 µM; in series [3], 33.3 µM; in series [4] it was 204 µM; in series [5], 553 µM.

As to `C[C@@H]1[C@H](OC(=O)c2cccc(SCc3ccccc3)c2)C[C@H]2[C@@H](C)[C@H](OC(=O)c3cccc(SCc4ccccc4)c3)O[C@@H]3O[C@]4(C)CC[C@@H]1[C@]32OO4`, the IC50 in series [1] stood at 289 µM; in series [3], 223 µM.

On to `CCSc1cccc(C(=O)O[C@@H]2O[C@@H]3O[C@]4(C)CC[C@H]5[C@H](C)[C@H](OC(=O)c6cccc(SCC)c6)C[C@@H]([C@H]2C)[C@@]35OO4)c1`, for which the IC50 was 112 µM in series [1], 44.4 µM in series [3], 30 µM in series [4] and 74.2 µM in series [5].
